US20220249596A1, “PIC1 PEPTIDE COMPOSITIONS AND METHODS OF USE THEREOF FOR TREATMENT OF HYPOXIC ISCHEMIC ENCEPHALOPATHY” (REALTA HOLDINGS, LLC, priority 2019, published 2022)
“Also recorded” adds a separate entry of the source. No end group written: not given here.

What was measured:
Assay type in all cases: in vivo, rat
T-maze test = details: six weeks after surgery, between study groups, pooled and separated genders
Source text: No other preparation was needed. The thawed tubes were kept on ice until dosing.
The T-maze test apparatus was plastic with two 45 cm long arms, which extend at right-angles from a 57 cm long alley (see www.noldus.com/animal-behavior-research/t-maze). The arms have a width of 10 cm and were surrounded by 10 cm high walls. The test consists of two trials at an interval of five minutes, during which time the animals are returned to their home cages. During an eight minute acquisition trial, one of the short arms was closed. In a three minute test trial, rats had access to both arms and to the alley. Time spent in each of the arms and in the long alley was assessed. Cognitively healthy rats tended to spend more time in the novel arm than in the familiar one or in the alley.
In an eight minute acquisition trial, while the novel arm is blocked, each rat was lowered to the beginning of the alley arm, facing the wall, and allowed to freely explore the maze's arms (start arm (alley arm), center and familiar arm), while the novel arm was inaccessible. […]
During the three minute test trial, with all three arms accessible (the wall of the novel arm was removed), each rat was allowed to freely explore the whole maze. Time spent in each of the arms was recorded using EthoVision XT 11 automated tracking system (Noldus Information Technology).

[1] = Barnes maze, spatial learning and memory
Description: Spatial learning and memory were evaluated by measuring navigational ability of rats in a Barnes maze 8 weeks after initial injury. The Barnes maze tests memory across test sessions or trials and is more closely related to long-term memory. The test was performed using a Plexiglas maze 122 cm in diameter, with 20 equidistant holes (10.5 cm diameter) spaced every […], and centered 20 cm from the outer perimeter. An escape box (8 cm in depth) was placed under one of the holes. The position of the escape box was varied randomly from rat to rat, but kept constant for a given rat throughout testing. A floodlight was placed over the maze to serve as an aversive stimulus.
Prior to testing, the rats underwent habituation sessions once a day for 5 consecutive days. In each session, the rats were placed in a holding box in the middle of the maze and allowed to get acclimated for 60 seconds. The holding box was then lifted up from the rats so that the rats were allowed to explore. The test was over when either the rat found the burrowing hole and burrowed for 10 seconds or the 5-minute time limit was reached. […] On the 14th day after the habituation sessions, the rats were tested to evaluate memory retention. Latency to investigate any hole, escape latency, and number of errors during the test trials were analyzed by two-way ANOVA, followed by Bonferroni's post hoc comparison matrix. The same measurements recorded during the memory retention test were analyzed by Student's t-test. Significance was considered at p<0.05.

C5a = assay: Systemic C5a level in plasma, fluorescent immunoassay; details: 12 and 24 hours after initial insult, P<0.05; persisted to 48 hours
Description: (§1) The local and systemic effects of NT, HT and PIC1 treatment on the complement cascade were measured. CNS C1q levels and systemic C1q and C5a levels were measured using a fluorescent immunoassay.
(§2) Systemic C1q and C5a levels were measured as follows. 100 μl of 1:5 plasma in 1×PBS was added to the wells of a plate described above and incubated overnight at 4° C. The plates were washed 3 times with PBST and blocked with NDS or NGS for one hour. Samples were probed with either 1:50 goat anti-human C1q (Complement Technology) in NDS or 1:200 mouse anti-human C5a (Human Complement Component C5a DuoSet ELISA, R&D Systems, Inc., Minneapolis, Minn.) in NGS for one hour at RT. The wells were washed and 1:500 donkey anti-goat 488 (Life Technologies) in NDS or 1:500 goat anti-mouse AF 568 (Life Technologies) in NGS was added, and incubated for one hour at RT. The wells were washed and the plate read using a Synergy HT (BioTek). Systemic C3a levels in plasma (1:20 dilution) were measured using a standard ELISA, according to the manufacturer's instructions (Rat C3a ELISA Kit, TSZ ELISA, Waltham, Mass.).

MPO (Myeloperoxidase) = assay: Myeloperoxidase expression in cortex (oxidant stress); details: 48 hours after injury, versus NT animals, P<0.01
Description: After blocking for one hour at room temperature, tissues were incubated with 1:300 goat anti-Iba1 (Abcam), 1:250 goat anti-GFAP (Abcam), 1:500 chicken anti-NeuN (Millipore, Billerica, Mass.), or 1:100 mouse anti-NeuN (Millipore) in host appropriate blocking serum overnight at 4° C. Primary antibodies were probed with 1:500 donkey anti-goat (Abcam), goat anti-chicken (Abcam), or goat anti-mouse (Abcam) AF 488 or 568 in appropriate blocking serum for one hour at room temperature. Tissues were blocked a second time with NGS for one hour at room temperature. Samples were then probed with 1:300 mouse anti-C1q (Abcam), 1:300 rabbit anti-C9, 1:50 rabbit anti-MPO (Abcam), 1:200 rabbit anti-TMEM (Novus Bio, Centennial, Colo.), 1:100 rabbit anti-C3aR (Bioss), 1:100 Mouse anti-C5aR (Hycult), or 1:200 chicken anti-C3/C3a (Abcam) in NGS overnight at 4° C. and then with 1:500 goat anti-mouse, rabbit, or chicken (Abcam) AF 488 or 568 in NGS for one hour at room temperature.
To examine the effect of PIC1 treatment on oxidant stress, expression of the enzyme myeloperoxidase (MPO) was measured in the cortex of the brain. MPO is an enzyme from neutrophils that damages invading and host cells alike. MPO is one of the markers of oxidative stress after ischemic injury and is responsible for generating reactive oxygen species (hypochlorous acid and hydrogen peroxide). […]

C1q = assay: Systemic C1q level in plasma, fluorescent immunoassay; details: 8, 12 and 24 hours after initial insult, P<0.05
Description: as §1, §2

[2] = Beam walk assay, fine motor coordination and balance; details: versus NT animals
Description: Fine motor coordination and balance was assessed by a beam walk assay, which was performed as follows. Gross motor function and balance was evaluated using the beam walking test 6 weeks after HIE. Beams of varying widths (19 mm, 13 mm, or 6 mm) were used that led to a dark escape box. Each beam was 90 cm long and elevated 60 cm from the ground. The goal of this test is for the rat to stay upright and walk across elevated narrow beams of decreasing width (0.75 and 0.25 inches, or 19 mm and 6 mm) to a safe platform.
Rats were placed on a loading platform on the proximal end of the apparatus, and instinctively walked towards the box when placed on a beam. Rats were trained on each beam prior to the test. On the test day, rats were placed on the loading platform, and videos were recorded. Rats were given up to 5 attempts to cross each beam. Failures, i.e., inability to cross along with right and left foot slips, were analyzed by an investigator blinded to the treatment

IALILEPICCQERAA-dPEG24 (cysteine pairing not given here) [PIC1]
T-maze: time spent in novel and familiar arms, alley, center (T-maze test): no significant differences; also recorded: No statistical significances
Barnes maze: latency in finding the escape hole ([1]; 8 weeks after injury, versus NT and HT animals): significantly shorter
Barnes maze: seeking strategy ([1]; direct versus random or serial strategy): more likely to use a direct strategy
Barnes maze: errors in finding the escape hole ([1]; versus HT-treated animals): significantly fewer
Barnes maze: errors in finding the escape hole ([1]; versus NT animals, P=0.06, not statistically significant): trended towards fewer errors
systemic C5a levels, NT animals relative to PIC1-treated animals (C5a): significantly higher
decrease of MPO expression in brain (MPO (Myeloperoxidase)): 83%
C1q levels in plasma, NT animals relative to PIC1-treated animals (C1q): significantly higher
beam walk performance ([2]; 0.25 inch beam): performed significantly better
beam walk performance ([2]; 0.75 inch beam): performed significantly better
